This is an account of results in publication PMC3038857, “Using Nuclear Receptor Activity to Stratify Hepatocarcinogens” (PLoS ONE, 2011).

In one series the test system is SR. As to conditions: cited from earlier work.
Series [1] concerns liver. Conditions: in vivo.
For series [2], the system named is cytochrome P-450 in the 2B subfamily. Conditions: mouse, in vivo; cited from earlier work.
Series [3] relates to AhR, CAR, PXR, PPAR, LXR, SR and RXR.
Series [4] deals with liver. The experiment in a line: Cancer lesion progression: 2-year chronic rat and mouse liver histopathology (ToxRefDB), lesion progression groups (LPG). Conditions: liver lesions after 2-year chronic treatment, ToxRefDB data clustered into groups I-VIII.
In a further series the test system is AhR. The experiment in a line: Aggregate nuclear receptor activity: AhR. Conditions: aggregate human NR activity, in words. The text has this: (§1) To summarize the activity of chemicals across the NR superfamily we aggregated the ToxCast assays for genes and NR groups as follows: retinoic X receptor-like (RXR; [drawing 5]; NR2B); peroxisome proliferator-activated receptor-like (PPAR; [drawing 6]; NR1C); constitutive androstane receptor ( [drawing 7]; [drawing 8]; [drawing 9] ); pregnane X receptor ( [drawing 10]; [drawing 11] ); liver X receptor-like (LXR; [drawing 12] , FXR; NR1H); and steroid receptor-like (SR; [drawing 13] , [drawing 14] , [drawing 15] ). These are shown visually in Figure 1(a). As there were differences in the number and types of assays for each group, aggregate activity was calculated as the average potency across the assays measured by the AC50 or LEC (described in Methods). This approach aggregated NR binding, activation, agonism or antagonism results into a single assessment of activity.
(§2) All data used in this analysis are publicly available from the ToxCast website (www.epa.gov/toxcast). The analysis was conducted using the R statistical language (www.r-project.org). For each chemical [drawing 77] , and assay [drawing 78] combination we derived either the AC50 (50% maximal activity concentration) or LEC (Lowest Effective Concentration) in [drawing 79] M denoted as, [drawing 80] . All chemicals are provided in Dataset S3 and all assays are given in Dataset S1. The procedure for evaluating the quality of [drawing 81] are described in the supplementary methods (Text S1) and all assay results are provided in Dataset S2. In order to facilitate comparison across the assays the [drawing 82] were transformed by the formula, [drawing 83] where [drawing 84] represents a the potency on an ascending scale, and [drawing 85] is the maximum concentration (lowest potency) across the data set.
(§3) The aggregate NR activity [drawing 86] , where [drawing 87] , was calculated using assays [drawing 88] . The aggregate scaled NR activity score for each chemical [drawing 89] was calculated as the average concentration value across the assays, scaled by the maximum value across all chemicals using Equation 1. [drawing 90] (1)

For series [5], the system named is PPAR. The series can be described thus: Aggregate nuclear receptor activity: PPAR. As to conditions: aggregate human NR activity, in words.
Text: as §1, §2, §3

For the next series, the system named is PXR. The series can be described thus: Aggregate nuclear receptor activity: PXR. Details: species or system human.
Text: as §1, §2, §3

The test system of a further series is CAR. The series can be described thus: Aggregate nuclear receptor activity: CAR. As to conditions: aggregate human NR activity, in words.
Text: as §1, §2, §3

Series [6] relates to PPAR. Details: method as in PMID 17084873. As to conditions: in rats; cited from earlier work.
For series [7], the system named is SR (steroid receptor-like). The series can be described thus: Aggregate nuclear receptor activity: SR. Conditions: aggregate human NR activity, in words.
Text: as §1, §2, §3

The next series relates to LXR. The experiment in a line: Aggregate nuclear receptor activity: LXR. As to conditions: aggregate human NR activity, in words.
Text: as §1, §2
The aggregate NR activity [drawing 86] , where [drawing 87] , was calculated using assays [drawing 88] . The aggregate scaled NR activity score for each chemical [drawing 89] was calculated as the average concentration value across the assays, scaled by the maximum value across all chemicals using Equation 1. [drawing 90] […]

A further series concerns human PXR. More on the design: method as in PMID 16565514. Conditions: cited from earlier work.
The mark [8] stands for this setting: aggregate human NR activity, in words.

Read-outs that look alike come from different tables or passages of the source.

With `CNC(=O)Oc1cccc2ccccc12` [Carbaryl, naphthalen-1-yl methylcarbamate], the SR activity entry in the series on SR is on record as “activity”.
For the molecule `CCNC(=O)NC(=O)/C(C#N)=N/OC` [Cymoxanil, (2E)-2-cyano-N-(ethylcarbamoyl)-2-(methoxyimino)acetamide], the “lesion progression group (LPG)” value in the series on liver [1] is on record as “Cymoxanil”.
Take `CC(C1CC1)C(O)(Cn1cncn1)c1ccc(Cl)cc1` (stereo not shown) [Cyproconazole, 2-(4-chlorophenyl)-3-cyclopropyl-1-(1H-1,2,4-triazol-1-yl)butan-2-ol]: the “expression of a cytochrome P-450 in the 2B subfamily” value in [2] is listed as “induce expression”.
On to `CCCCOC(=O)c1ccccc1C(=O)OCCCC` [Dibutyl phthalate, dibutyl phthalate], for which the “overall NR activity” value in [3] is on record as “low NR activity”.
Turning to `COC(=O)C(C)Oc1ccc(Oc2ccc(Cl)cc2Cl)cc1` (stereo not shown) [Diclofop-methyl, methyl 2-[4-(2,4-dichlorophenoxy)phenoxy]propanoate], the “lesion progression group (LPG)” value with liver [4] is on record as “I”. Moreover, in the series on AhR, the “activity with AhR” value is “some activity”. Moreover, the “activity with PPAR” value in the series on PPAR [5] is reported as “most consistently active”. For the same molecule, the “activity with PXR” value with PXR (setting [8]) is given as “some activity”. Moreover, the “activity with CAR” value in the series on CAR was “some activity”. The PPAR activity entry in the series with PPAR [6] was “active”. The “activity with SR” value in series [7] is listed as “some activity”.
As for `CC[C@H](C)[C@H]1O[C@]2(C=C[C@@H]1C)C[C@@H]1C[C@@H](C/C=C(\C)[C@@H](O[C@H]3C[C@H](OC)[C@@H](O[C@H]4C[C@H](OC)[C@@H](NC)[C@H](C)O4)[C@H](C)O3)[C@@H](C)/C=C/C=C3\CO[C@@H]4[C@H](O)C(C)=C[C@@H](C(=O)O1)[C@]34O)O2.O=C(O)c1ccccc1` [Emamectin benzoate, (2aE,4E,5\S,6S,6\R,7S,8E,11R,13S,15S,17aR,20R,20aR,20bS)-20,20b-dihydroxy-5\,6,8,19-tetramethyl-6\-[(1S)-1-methylpropyl]-17-oxo-5\,6,6\,10,11,14,15,17,17a,20,20a,20b-dodecahydro-2H,7H-spiro[11,15-methanofuro[4,3,2-pq][2,6]benzodioxacyclooctadecine-13,2\-pyran]-7-yl 2,6-dideoxy-3-O-methyl-4-O-[2,4,6-trideoxy-3-O-methyl-4-(methylammonio)-a-L-arabino-hexopyranosyl]-a-L-arabino-hexopyranoside benzoate], in the series on liver [1], the “lesion progression group (LPG)” value is recorded as “Emamectin benzoate”.
As for `N#Cc1c[nH]cc1-c1cccc2c1OC(F)(F)O2` [Fludioxonil, 4-(2,2-difluoro-1,3-benzodioxol-4-yl)-1H-pyrrole-3-carbonitrile], in the series on PPAR [5], the “activity with PPAR” value was “less frequently”. In addition, the “activity with PXR” value in the series with PXR (setting [8]) is given as “consistently active”. Further, the “activity with LXR” value in the series with LXR was “less frequently”. For the same molecule, in [7], the “activity with SR” value was “less frequently”.
On to `C=CCOC(Cn1ccnc1)c1ccc(Cl)cc1Cl` (stereo not shown) [Imazalil, 1-[2-(allyloxy)-2-(2,4-dichlorophenyl)ethyl]-1H-imidazole], for which, in the series on AhR, the “activity with AhR” value is reported as “some activity”. In addition, the “activity with PPAR” value with PPAR [5] is on record as “most consistently active”. The “activity with PXR” value in the series with PXR (setting [8]) is recorded as “some activity”. Moreover, the “activity with CAR” value in the series on CAR is listed as “some activity”. Moreover, the “activity with SR” value in [7] is given as “some activity”.
Regarding `CS(=O)(=O)c1cc(C(F)(F)F)ccc1C(=O)c1cnoc1C1CC1` [Isoxaflutole, (5-cyclopropylisoxazol-4-yl)[2-(methylsulfonyl)-4-(trifluoromethyl)phenyl]methanone], in the series with liver [1], the “lesion progression group (LPG)” value is recorded as “I”.
For the molecule `CCOC(=O)C(C)OC(=O)c1cc(Oc2ccc(C(F)(F)F)cc2Cl)ccc1[N+](=O)[O-]` (stereo not shown) [Lactofen, 2-ethoxy-1-methyl-2-oxoethyl 5-[2-chloro-4-(trifluoromethyl)phenoxy]-2-nitrobenzoate], the “activity with AhR” value in the series with AhR is given as “consistently active”. For the same molecule, the “activity with PPAR” value in the series on PPAR [5] was “less frequently”. Also, the “activity with PXR” value in the series on PXR is “consistently active”. Further, the “activity with CAR” value in the series on CAR is recorded as “consistently active”. In addition, the “lesion progression group (LPG)” value in the series on liver [1] is “I”. In addition, in the series with LXR, the “activity with LXR” value is reported as “less frequently”. Also, in series [7], the “activity with SR” value is listed as “less frequently”.
For the molecule `Cl[C@H]1[C@H](Cl)[C@@H](Cl)[C@@H](Cl)[C@H](Cl)[C@H]1Cl` [Lindane, (1r,2R,3S,4r,5R,6S)-1,2,3,4,5,6-hexachlorocyclohexane], in the series on AhR, the “activity with AhR” value is given as “active”. In addition, the “activity with PXR” value in the series on PXR (setting [8]) is “active”. Also, the “lesion progression group (LPG)” value with liver [1] was “Lindane”.
Regarding `CCOC(=O)CC(SP(=S)(OC)OC)C(=O)OCC` (stereo not shown) [Malathion, diethyl 2-[(dimethoxyphosphorothioyl)thio]succinate], in the series with AhR, the “activity with AhR” value was “some activity”. Further, the “activity with PPAR” value in the series on PPAR [5] is given as “most consistently active”. Also, the SR activity entry in the series on SR is “known SR activity”. The “activity with PXR” value in the series with PXR (setting [8]) is on record as “some activity”. In addition, in the series with CAR, the “activity with CAR” value is “some activity”. Moreover, the “activity with SR” value in [7] is “some activity”.
Regarding `CC(C)Oc1cc(-n2nc(C(C)(C)C)oc2=O)c(Cl)cc1Cl` [Oxadiazon, 5-tert-butyl-3-(2,4-dichloro-5-isopropoxyphenyl)-1,3,4-oxadiazol-2(3H)-one], the “activity with AhR” value in the series on AhR was “consistently active”. For the same molecule, in the series on human PXR, the “human PXR activity” value is reported as “known human PXR activity”. For the same molecule, the “activity with PPAR” value with PPAR [5] was “less frequently”. In addition, in the series with PXR (setting [8]), the “activity with PXR” value was “consistently active”. In addition, in the series on CAR, the “activity with CAR” value was “consistently active”. Further, in the series on liver [1], the “lesion progression group (LPG)” value is reported as “I”. In addition, the “activity with LXR” value with LXR is given as “less frequently”. Moreover, in series [7], the “activity with SR” value was “less frequently”.
Consider `C=CC1(C)OC(=O)N(c2cc(Cl)cc(Cl)c2)C1=O` (stereo not shown) [Vinclozolin, 3-(3,5-dichlorophenyl)-5-methyl-5-vinyl-1,3-oxazolidine-2,4-dione], for which the “activity with AhR” value in the series on AhR is “some activity”. In the series on PPAR [5], the “activity with PPAR” value is “most consistently active”. Besides, in the series with SR, the SR activity entry is “known SR active”. Besides, in the series on PXR, the “activity with PXR” value is “some activity”. Moreover, in the series on liver [1], the “lesion progression group (LPG)” value is listed as “I”. Moreover, in [7], the “activity with SR” value was “some activity”.
